Reference: patent publication US4684664A, “Derivatives of β-(4-isocyano-1,2,3,4-diepoxycyclopentyl) acrylic acid” (Kureha Kagaku Kogyo Kabushiki Kaisha, priority 1984, dated 1987)

Assays:
Assay type in all cases: cell-based
[1] = tested on: Staphylococcus aureus FDA 209PJc-1; test: Antibacterial activity, agar-dilution MIC, organism No. 1; settings: Staphylococcus aureus, FDA209PJC1; Organism No. 1, bouillon-agar; read-out: Minimum Inhibitory Concentration
Outline: (§1)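 For each organism the specimen was serially diluted into bouillon agar, and inhibition was scored to give the MIC in μg/ml of culture medium.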

[2] = tested on: Staphylococcus aureus Terajima; test: Antibacterial activity, agar-dilution MIC, organism No. 2; settings: Staphylococcus aureus; Organism No. 2, bouillon-agar; read-out: Minimum Inhibitory Concentration
Outline: as §1

[3] = tested on: Staphylococcus aureus MS 353; test: Antibacterial activity, agar-dilution MIC, organism No. 3; settings: Staphylococcus aureus, MS353; Organism No. 3, bouillon-agar; read-out: Minimum Inhibitory Concentration
Outline: as §1

[4] = tested on: Streptococcus pyogenes Cook; test: Antibacterial activity, agar-dilution MIC, organism No. 4; settings: Streptococcus pyogenes; Organism No. 4, bouillon-agar; read-out: Minimum Inhibitory Concentration
Outline: as §1

[5] = tested on: Escherichia coli NIHJ-JC-2; test: Antibacterial activity, agar-dilution MIC, organism No. 5; settings: Escherichia coli, NIHJJC2; Organism No. 5, bouillon-agar; read-out: Minimum Inhibitory Concentration
Outline: as §1

[6] = tested on: Escherichia coli K12 C600 IAM 1264; test: Antibacterial activity, agar-dilution MIC, organism No. 6; settings: Escherichia coli, IAM1264; Organism No. 6, bouillon-agar; read-out: Minimum Inhibitory Concentration
Outline: as §1

[7] = tested on: Klebsiella pneumoniae PCI-602; test: Antibacterial activity, agar-dilution MIC, organism No. 7; settings: Klebsiella pneumoniae, PCI602; Organism No. 7, bouillon-agar; read-out: Minimum Inhibitory Concentration
Outline: as §1

[8] = tested on: Salmonella typhimurium IID 971; test: Antibacterial activity, agar-dilution MIC, organism No. 8; settings: Salmonella enterica; Organism No. 8, bouillon-agar; read-out: Minimum Inhibitory Concentration
Outline: as §1

[9] = tested on: Salmonella typhi 901; test: Antibacterial activity, agar-dilution MIC, organism No. 9; settings: Salmonella enterica, TYPHI, read-out: Minimum Inhibitory Concentration
Outline: as §1

[10] = tested on: Salmonella paratyphi-A 1015; test: Antibacterial activity, agar-dilution MIC, organism No. 10; settings: Salmonella enterica, PARATYPHI, read-out: Minimum Inhibitory Concentration
Outline: as §1

[11] = tested on: Salmonella shottmuelleri 8006; test: Antibacterial activity, agar-dilution MIC, organism No. 11; settings: Salmonella, 8006; Organism No. 11, bouillon-agar; read-out: Minimum Inhibitory Concentration
Outline: as §1

[12] = tested on: Salmonella enteritidis G 14; test: Antibacterial activity, agar-dilution MIC, organism No. 12; settings: Salmonella enterica, ENTERITIDIS; Organism No. 12, bouillon-agar; read-out: Minimum Inhibitory Concentration
Outline: as §1

[13] = tested on: Serratia marcescens IAM 1184; test: Antibacterial activity, agar-dilution MIC, organism No. 13; settings: Serratia marcescens, IAM1184; Organism No. 13, bouillon-agar; read-out: Minimum Inhibitory Concentration
Outline: as §1

[14] = tested on: Bacillus subtilis ATCC 6633; test: Antibacterial activity, agar-dilution MIC, organism No. 14; settings: Bacillus subtilis, ATCC6633; Organism No. 14, bouillon-agar; read-out: Minimum Inhibitory Concentration
Outline: as §1

[15] = tested on: Pseudomonas aeruginosa IFO 3445; test: Antibacterial activity, agar-dilution MIC, organism No. 15; settings: Pseudomonas aeruginosa, IFO3445; Organism No. 15, bouillon-agar; read-out: Minimum Inhibitory Concentration
Outline: as §1

[16] = tested on: Pseudomonas aeruginosa NCTC 10490; test: Antibacterial activity, agar-dilution MIC, organism No. 16; settings: Pseudomonas aeruginosa, NCTC10490; Organism No. 16, bouillon-agar; read-out: Minimum Inhibitory Concentration
Outline: as §1

[17] = tested on: Pseudomonas aeruginosa PAO 1; test: Antibacterial activity, agar-dilution MIC, organism No. 17; settings: Pseudomonas aeruginosa, PAO1; Organism No. 17, bouillon-agar; read-out: Minimum Inhibitory Concentration
Outline: as §1

[18] = tested on: Proteus morganii IFO 3848; test: Antibacterial activity, agar-dilution MIC, organism No. 18; settings: Morganella morganii, IFO3848; Organism No. 18, bouillon-agar; read-out: Minimum Inhibitory Concentration
Outline: as §1

[19] = tested on: Proteus mirabilis IFO 3849; test: Antibacterial activity, agar-dilution MIC, organism No. 19; settings: Proteus mirabilis, IFO3849; Organism No. 19, bouillon-agar; read-out: Minimum Inhibitory Concentration
Outline: as §1

[20] = tested on: Proteus vulgaris OX-19; test: Antibacterial activity, agar-dilution MIC, organism No. 20; settings: Proteus vulgaris, OX19; Organism No. 20, bouillon-agar; read-out: Minimum Inhibitory Concentration
Outline: as §1

[21] = tested on: Proteus vulgaris HX-19; test: Antibacterial activity, agar-dilution MIC, organism No. 21; settings: Proteus vulgaris, HX19; Organism No. 21, bouillon-agar; read-out: Minimum Inhibitory Concentration
Outline: as §1

[22] = tested on: Proteus rettgeri IFO 3850; test: Antibacterial activity, agar-dilution MIC, organism No. 22; settings: Providencia rettgeri, IFO3850; Organism No. 22, bouillon-agar; read-out: Minimum Inhibitory Concentration
Outline: as §1

[23] = tested on: Enterobacter aerogenes ATCC 13048; test: Antibacterial activity, agar-dilution MIC, organism No. 23; settings: Klebsiella aerogenes, ATCC13048; Organism No. 23, bouillon-agar; read-out: Minimum Inhibitory Concentration
Outline: as §1

[24] = tested on: Enterobacter cloacae 963; test: Antibacterial activity, agar-dilution MIC, organism No. 24; settings: Enterobacter cloacae, 963; Organism No. 24, bouillon-agar; read-out: Minimum Inhibitory Concentration
Outline: as §1

[25] = tested on: Micrococcus luteus ATCC 9341; test: Antibacterial activity, agar-dilution MIC, organism No. 25; settings: Micrococcus luteus, ATCC9341; Organism No. 25, bouillon-agar; read-out: Minimum Inhibitory Concentration
Outline: as §1

[26] = tested on: Streptococcus pyogenes IFO 3340; test: Antibacterial activity, agar-dilution MIC, organism No. 26; settings: Streptococcus pyogenes, IFO3340; Organism No. 26, bouillon-agar; read-out: Minimum Inhibitory Concentration
Outline: as §1

[27] = tested on: Streptococcus faecium IFO 3826; test: Antibacterial activity, agar-dilution MIC, organism No. 27; settings: Enterococcus faecium, IFO3826; Organism No. 27, bouillon-agar; read-out: Minimum Inhibitory Concentration
Outline: as §1

[28] = tested on: Mycoplasma pneumoniae IID817; test: Antimycoplasmal activity, MIC by phenol red colour change, organism No. 28; settings: Mycoplasma, IID817; Organism No. 28, PPLO broth + 1% glucose, 37° C.; read-out: Minimum Inhibitory Concentration (MIC)
Protocol: Mycoplasma pneumoniae IID817 was used as the test microorganism in a culture medium prepared by adding 1% of glucose to "PPLO broth (manufactured by Difco Co.) liquid culture medium" at 37° C. with phenol red as an indicator, thereby culturing the test microorganism.

[29] = tested on: Candida albicans IAM 4905; test: Antifungal activity, agar-dilution MIC, organism No. 29; settings: Candida albicans, IAM4905; Organism No. 29, bouillon-agar; read-out: Minimum Inhibitory Concentration
Outline: as §1

[30] = tested on: Aspergillus niger IFO 6342; test: Antifungal activity, agar-dilution MIC, organism No. 30; settings: Aspergillus niger, IFO6342; Organism No. 30, bouillon-agar; read-out: Minimum Inhibitory Concentration
Outline: as §1

Measured: MIC

[C-]#[N+]C12CC3(/C=C/C(=O)OCC(=O)c4ccccc4)OC3C1O2 (stereo not drawn) [Compound No. 3]
0.05 µg/mL: [3] | [21] | [28]
0.8 µg/mL: [29]
0.2 µg/mL: [1] | [25]
1.56 µg/mL: [20]
3.13 µg/mL: [2] | [18] | [27] | [30]
6.25 µg/mL: [4] | [7] | [10] | [11] | [26]
12.5 µg/mL: [9] | [12]
> 100 µg/mL: [13] | [15] | [16] | [17] | [23] | [24]
50 µg/mL: all other assays above

[C-]#[N+]C12CC3(/C=C/C(=O)Nc4ccc(S(N)(=O)=O)cc4)OC3C1O2 (stereo not drawn) [compound 63]
1.56 µg/mL: [20] | [21]
50 µg/mL: [9] | [14]
25 µg/mL: [2] | [12] | [25]
3.13 µg/mL: [1] | [3] | [7] | [18]
100 µg/mL: [8] | [29] | [30]
12.5 µg/mL: [10] | [11]
6.25 µg/mL: [22] | [26]
< 0.2 µg/mL: [28]
> 200 µg/mL: all other assays above

[C-]#[N+]C12CC3(/C=C/C(=O)Nc4ccc5c(c4)OCO5)OC3C1O2 (stereo not drawn) [compound 64]
0.2 µg/mL: [1] | [3] | [7] | [20]
6.25 µg/mL: [8] | [14] | [18] | [30]
0.05 µg/mL: [21] | [25]
0.39 µg/mL: [10] | [11] | [29]
25 µg/mL: [5]
50 µg/mL: [13]
12.5 µg/mL: [4] | [6] | [27]
< 0.2 µg/mL: [28]
0.78 µg/mL: [2]
3.13 µg/mL: [9] | [12] | [22]
1.56 µg/mL: [26]
> 200 µg/mL: all other assays above

[C-]#[N+]C12CC3(/C=C/C(=O)Nc4ccccc4C(N)=O)OC3C1O2 (stereo not drawn) [compound 62]
12.5 µg/mL: [1] | [3] | [18]
3.13 µg/mL: [7] | [20] | [21]
50 µg/mL: [2] | [8] | [12]
6.25 µg/mL: [26]
< 0.2 µg/mL: [28]
100 µg/mL: [29] | [30]
25 µg/mL: [9] | [10] | [11] | [14] | [25]
> 200 µg/mL: all other assays above

[C-]#[N+]C12CC3(/C=C/C(=O)OCc4cc([N+](=O)[O-])ccc4OC)OC3C1O2 (stereo not drawn) [Compound No. 16]
25 µg/mL: [14]
3.13 µg/mL: [21] | [29]
0.1 µg/mL: [25]
50 µg/mL: [7] | [9] | [10] | [11] | [20]
100 µg/mL: [13] | [22]
6.25 µg/mL: [1] | [2] | [3] | [27] | [28] | [30]
12.5 µg/mL: [18]
200 µg/mL: [4] | [5] | [6] | [26]
> 200 µg/mL: all other assays above

[C-]#[N+]C12CC3(/C=C/C(=O)O)OC3C1O2 (stereo not drawn) [α substituted acrylic acid, β-(4-isocyano-1,2-3,4-diepoxycyclopentyl)acrylic acid, reference compound]
3.13 µg/mL: [12]
25 µg/mL: [1] | [3] | [4] | [14] | [30]
200 µg/mL: [15] | [16] | [17] | [23]
100 µg/mL: [24]
50 µg/mL: [2] | [7] | [13] | [22] | [27]
< 0.2 µg/mL: [28]
6.25 µg/mL: [9] | [20] | [21] | [26]
12.5 µg/mL: all other assays above

[C-]#[N+]C12CC3(/C=C/C(=O)NOC)OC3C1O2 (stereo not drawn) [compound 81]
> 200 µg/mL: [17] | [23] | [24]
100 µg/mL: [19] | [22] | [25]
50 µg/mL: [14] | [20]
6.25 µg/mL: [9] | [10] | [12] | [21] | [26] | [30]
200 µg/mL: [7] | [13] | [15] | [16]
< 0.2 µg/mL: [28]
25 µg/mL: [1] | [2] | [4] | [18]
12.5 µg/mL: all other assays above
